Drawing on PubChem BioAssay (NCI), this text covers TGI and GI50 for 10 compounds.

Some test systems named below: SF-539 CNS; K-562 leukemia; HCT-15 colon; SF-268 CNS; OVCAR-5 ovarian; NCI-H522 lung; OVCAR-4 ovarian; HCT-116 colon; EKVX NSCLC; HL-60(TB) leukemia.
Assay in all cases: NCI-60 cell line screen, 48 h

SMILES strings stand for the structures.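 Cells were grown in 96-well plates and exposed to each compound for 48 hours at five concentrations; endpoints were interpolated linearly between bracketing concentrations, or set to the highest concentration if not reached. Here, GI50 denotes the concentration required for 50% inhibition of growth. TGI denotes the concentration required for complete inhibition of growth.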

`Nc1nc(-c2cccc([N+](=O)[O-])c2)c(Br)c(=O)[nH]1`: the TGI with SF-539 CNS is above 82 µM; in the experiment on K-562 leukemia, above 100 µM; in the experiment on HCT-15 colon, above 100 µM; with SF-268 CNS it was above 100 µM; in the experiment with OVCAR-5 ovarian it was above 100 µM; with NCI-H522 lung it was above 100 µM. Besides, the TGI in the experiment with OVCAR-4 ovarian, with HCT-116 colon, in the experiment on EKVX NSCLC and with HL-60(TB) leukemia was above 100 µM each time.

As for `CCN(CC)CCNc1c(OC)cc(C)c2sc3ccccc3c(=O)c12`, the TGI stood at 23 µM in the experiment with SF-539 CNS; 4.04 µM in the experiment with K-562 leukemia; 14.4 µM with HCT-15 colon; 25.7 µM in the experiment with SF-268 CNS; 13.4 µM in the experiment with OVCAR-5 ovarian; 20 µM in the experiment on NCI-H522 lung. Besides, the TGI worked out at 14.8 µM in the experiment with OVCAR-4 ovarian, 16.3 µM in the experiment with HCT-116 colon, 32.5 µM with EKVX NSCLC and 18.9 µM in the experiment with HL-60(TB) leukemia.

Turning to `COc1cc2nc(-c3ccc(C(F)(F)F)cc3)cc(OCCCN3CCOCC3)c2cc1OC`, the GI50 was 3.18 µM in the experiment on SF-539 CNS; 1.18 µM in the experiment on K-562 leukemia; 0.52 µM in the experiment with HCT-15 colon; 5.7 µM in the experiment with SF-268 CNS; 1.92 µM in the experiment on OVCAR-5 ovarian; 2.52 µM in the experiment on NCI-H522 lung. Further, the GI50 with OVCAR-4 ovarian is 10.3 µM; in the experiment with HCT-116 colon it was 0.583 µM; with EKVX NSCLC, 1.61 µM; in the experiment with HL-60(TB) leukemia, 9.58 µM. Besides, the TGI in the experiment on SF-539 CNS amounted to 16.4 µM; with K-562 leukemia, 15.9 µM; in the experiment with HCT-15 colon it was 5.57 µM; in the experiment on SF-268 CNS it was 27.9 µM; with OVCAR-5 ovarian, 18.8 µM; with NCI-H522 lung it was 15.3 µM. For the same compound, the TGI in the experiment with OVCAR-4 ovarian worked out at 23.2 µM; in the experiment on HCT-116 colon it was 13.5 µM; with EKVX NSCLC it was 19.6 µM; in the experiment with HL-60(TB) leukemia it was 47.3 µM.

For `CN1CCN(CCSC2Cc3cc(Cl)ccc3Sc3ccccc32)CC1` (centres undefined), the TGI in the experiment with SF-539 CNS is 11.7 µM; in the experiment on K-562 leukemia, 4.9 µM; with HCT-15 colon, 12.2 µM; with SF-268 CNS, 25.6 µM; in the experiment with OVCAR-5 ovarian, 18.2 µM; in the experiment with NCI-H522 lung, 12.8 µM. For the same compound, the TGI was 18.2 µM in the experiment with OVCAR-4 ovarian, 15.3 µM in the experiment on HCT-116 colon, 29.2 µM with EKVX NSCLC and 5.46 µM in the experiment on HL-60(TB) leukemia.

As to `COC(=O)CCC/C=C\C[C@H]1C=CC(=O)/C1=C/C[C@@H](O)CCc1cccc(C(F)(F)F)c1`, the GI50 was 2.9 µM in the experiment with SF-539 CNS; 2.23 µM in the experiment on K-562 leukemia; 1.67 µM with HCT-15 colon; 3.09 µM in the experiment on SF-268 CNS; 3.79 µM in the experiment with OVCAR-5 ovarian; 2.02 µM in the experiment with NCI-H522 lung. The GI50 in the experiment on OVCAR-4 ovarian was 3.47 µM; with HCT-116 colon, 1.78 µM; in the experiment with EKVX NSCLC it was 4.52 µM; in the experiment on HL-60(TB) leukemia, 2.53 µM. Besides, the TGI with SF-539 CNS was 9.24 µM; in the experiment with K-562 leukemia, 7.98 µM; in the experiment with HCT-15 colon, 4.18 µM; in the experiment with SF-268 CNS it was 11.4 µM; in the experiment on OVCAR-5 ovarian, 12.7 µM; in the experiment on NCI-H522 lung, 5.57 µM. Further, the TGI in the experiment on OVCAR-4 ovarian stood at 14.1 µM; in the experiment on HCT-116 colon, 4 µM; with EKVX NSCLC, 16.4 µM; in the experiment on HL-60(TB) leukemia, 7.17 µM.

For `O=C1C(Br)=C[C@H]2C3C=CC(Br)(C3=O)[C@@H]12` (some centres undefined), the TGI is 39.4 µM with SF-539 CNS; above 100 µM in the experiment on K-562 leukemia; 24.6 µM in the experiment on HCT-15 colon; 43.6 µM in the experiment with SF-268 CNS; 29 µM in the experiment on OVCAR-5 ovarian; 18.2 µM with NCI-H522 lung. For the same compound, the TGI was found to be 29.4 µM with OVCAR-4 ovarian, 22.8 µM with HCT-116 colon, 28.8 µM with EKVX NSCLC and 23 µM in the experiment with HL-60(TB) leukemia.

Take `NC(=O)c1c[se]c(C2OC(CO)C(O)C2O)n1` (centres undefined): the TGI in the experiment on SF-539 CNS was above 71.8 µM; in the experiment with K-562 leukemia, above 100 µM; in the experiment on HCT-15 colon, above 100 µM; in the experiment with SF-268 CNS, above 100 µM; in the experiment with OVCAR-5 ovarian it was above 100 µM; in the experiment with NCI-H522 lung, above 100 µM. For the same compound, the TGI in the experiment on OVCAR-4 ovarian is above 100 µM; in the experiment on HCT-116 colon, 55 µM; with EKVX NSCLC, above 100 µM; with HL-60(TB) leukemia, above 100 µM.

For the compound `Cc1cc(S(=O)(=O)Nc2nc(N)nc(N3N=CCC3C)n2)c(S)cc1Cl` (centres undefined), the TGI in the experiment with SF-539 CNS, with K-562 leukemia, with HCT-15 colon, in the experiment on SF-268 CNS, in the experiment with OVCAR-5 ovarian and with NCI-H522 lung was above 10 µM throughout. For the same compound, the TGI in the experiment with OVCAR-4 ovarian, in the experiment on HCT-116 colon, with EKVX NSCLC and in the experiment with HL-60(TB) leukemia was above 10 µM each time.

Turning to `C=CCc1cc2cccc(OC)c2oc1=O`, the TGI in the experiment on SF-539 CNS, with K-562 leukemia, in the experiment with HCT-15 colon, in the experiment with SF-268 CNS, in the experiment on OVCAR-5 ovarian and in the experiment with NCI-H522 lung was above 100 µM in each case. Besides, the TGI in the experiment with OVCAR-4 ovarian, in the experiment with HCT-116 colon, in the experiment with EKVX NSCLC and in the experiment with HL-60(TB) leukemia was above 100 µM each time.

As to `Clc1nc(Oc2ccccc2)nc(-c2cn(-c3ccccc3)c3ccccc23)n1`, the GI50 with SF-539 CNS was 16.1 µM; in the experiment with K-562 leukemia, 0.4 µM; in the experiment on HCT-15 colon, 5.38 µM; in the experiment on SF-268 CNS, 4.28 µM; in the experiment on OVCAR-5 ovarian, 22.9 µM; in the experiment on NCI-H522 lung, 1.88 µM. For the same compound, the GI50 with OVCAR-4 ovarian is 6.4 µM; with HCT-116 colon, 3.64 µM; in the experiment on EKVX NSCLC, 14.6 µM; in the experiment with HL-60(TB) leukemia, 0.773 µM. In addition, the TGI in the experiment on SF-539 CNS was 30 µM; with K-562 leukemia, 18.1 µM; with HCT-15 colon, 18 µM; with SF-268 CNS, 13.9 µM; in the experiment with OVCAR-5 ovarian, 52.7 µM; with NCI-H522 lung, 3.88 µM. The TGI turned out to be 18.7 µM in the experiment on OVCAR-4 ovarian, 11.8 µM in the experiment with HCT-116 colon and 46.9 µM in the experiment on EKVX NSCLC.
